The record followed here is US20050245511A1, “Novel compounds that inhibit tryptase activity” (Morphochem AG, priority 1999, published 2005).

Assay [1] has as its target human recombinant tryptase (Homo sapiens, UniProt Q15661). The assay is described as follows: inhibition of the amidolytic activity of tryptase, chromogenic peptide substrate. Format: biochemical. The note with it: 2.8 nM human recombinant tryptase, Hepes buffer pH 7.8, 200 nM heparin, substrate tosyl-glycyl-prolyl-lysine-4-nitranilide acetate, room temperature. The procedure:
(§1) To show the inhibition of the catalytic activity of tryptase one may use chromogenic peptide substrates. The inhibition of the amidolytic activity of tryptase by the compounds described above was shown as follows. The measurements were carried out at room temperature in microtiter plates. The compounds were dissolved in dimethylsulfoxide and 5 μl of this solution were added to a 2.8 nM solution of human recombinant tryptase in a Hepes buffer (pH: 7.8 In analogy to example 1 and using 100 mM Hepes, 140 mM NaCl, 0.1% PEG 6000, 0.05% Tween 80 and 200 nM heparin). Finally 750 μM of tosyl-glycyl-prolyl-lysine-4-nitranilide acetate in Hepes buffer were added and the hydrolysis of the substrate was followed with a spektrophometer. The same method but using N-methoxycarbonyl-D-norleucyl-glycyl-L-arginine-4-nitroanilide acetate as substrate was used to determine the inhibition of the proteolytic activity of factor Xa, i.e., another serin protease, by the compounds.

The target of another assay is factor Xa (Homo sapiens, UniProt P00742). In words: inhibition of the proteolytic activity of factor Xa, chromogenic peptide substrate. Particulars: same method, substrate N-methoxycarbonyl-D-norleucyl-glycyl-L-arginine-4-nitroanilide acetate. Format: biochemical. As to the method: as §1

Structures can show the parent of a compound that is named as a salt.

human recombinant tryptase, sequence (Q15661 31-275): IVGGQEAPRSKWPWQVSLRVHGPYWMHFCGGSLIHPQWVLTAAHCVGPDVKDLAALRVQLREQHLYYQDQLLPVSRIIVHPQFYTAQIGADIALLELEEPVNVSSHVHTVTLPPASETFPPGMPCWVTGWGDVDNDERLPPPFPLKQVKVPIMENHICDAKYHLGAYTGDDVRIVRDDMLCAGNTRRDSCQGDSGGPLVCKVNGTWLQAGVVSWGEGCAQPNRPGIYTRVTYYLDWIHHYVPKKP
factor Xa, sequence (P00742 235-488 limits assumed): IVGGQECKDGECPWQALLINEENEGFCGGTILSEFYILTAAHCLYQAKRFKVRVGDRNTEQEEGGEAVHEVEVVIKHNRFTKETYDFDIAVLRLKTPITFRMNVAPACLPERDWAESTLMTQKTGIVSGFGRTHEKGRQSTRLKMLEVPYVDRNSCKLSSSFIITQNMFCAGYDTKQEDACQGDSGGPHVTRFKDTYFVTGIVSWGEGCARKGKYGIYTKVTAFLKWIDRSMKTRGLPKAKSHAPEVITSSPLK
factor Xa, sequence (P00742 41-179 partner limits assumed): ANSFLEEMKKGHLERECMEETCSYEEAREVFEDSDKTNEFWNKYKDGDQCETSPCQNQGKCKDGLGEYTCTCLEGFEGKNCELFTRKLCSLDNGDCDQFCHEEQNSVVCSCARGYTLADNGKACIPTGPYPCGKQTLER

In the case of `N=C(N)c1cccc(NCC(=O)NCC(=O)NCCc2c[nH]c3ccccc23)c1` [Example 2, 2-({3-[amino(imino)methyl]phenyl}amino)-N-(2-{[2-(1H-indol-3-yl)ethyl]amino}-2-oxoethyl)acetamide hydrochloride], the IC50 in assay [1] is less than 0.09 µM; at factor Xa, 6.7 µM.
Take `N=C(N)c1cccc(NCC(=O)NCC(=O)NCCN2CCOCC2)c1` [Example 25, 2-({3-[amino(imino)methyl]phenyl}amino)-N-(2-([2-(4-morpholinyl)ethyl]amino}-2-oxoethyl)acetamide hydrochloride]: the IC50 in assay [1] is less than 0.09 µM; on factor Xa it was 22.8 µM.
Turning to `N=C(N)c1cccc(NC(CO)C(=O)NCC(=O)N2CCc3ccccc3C2)c1` (stereo not drawn) [Example 15, 2-({3-[amino (imino)methyl]phenyl}amino)-N-[2-(3,4-dihydro-2 (1H)-isoquinolinyl)-2-oxoethyl]-3-hydroxypropanamide hydrochloride], the concentration for half-maximal inhibition (IC50) in assay [1] is less than 0.09 µM; against factor Xa it was 3.95 µM.
On the same counts, the results for `N=C(N)c1ccc(CNCC(=O)NCC(=O)N2CCN(Cc3ccc4c(c3)OCO4)CC2)cc1` [Example 23, 2-[({4-(amino(imino)methyl)phenyl)methyl)amino]-N-(2-[4-(1,3-benzodioxol-5-ylmethyl)-1-piperazinyl]-2-oxoethyl}acetamide hydrochloride] are less than 0.09 µM and greater than 110 µM.
With `COc1ccccc1N1CCN(C(=O)CNC(=O)CNc2cccc(C(=N)N)c2)CC1` [Example 24, 2-({3-[amino(imino)methyl]phenyl}amino)-N-(2-{4-[2-(methyloxy)phenyl]-1-piperazinyl}-2-oxoethyl)acetamide hydrochloride], the IC50 is less than 0.09 µM in assay [1] and 1.6 µM on factor Xa.
In the case of `N=C(N)c1cccc(NC(CO)C(=O)NCC(=O)NCCc2c[nH]c3ccccc23)c1` (stereo not drawn) [Example 8, 2-({3-[amino(imino)methyl]phenyl}amino)-3-hydroxy-N-(2-{[2-(1H-indol-3-yl)ethyl]amino}-2-oxoethyl)propanamide hydrochloride], the IC50 in assay [1] is less than 0.09 µM; on factor Xa it was 7.8 µM.
In the case of `N=C(N)c1ccc(CNC(C(=O)NCC(=O)NCCc2ccccn2)c2ccc[nH]2)cc1` (stereo not drawn) [Example 21, 2-[({4-(amino(imino)methyl)phenyl}methyl)amino]-N-(2-oxo-2-{[2-(2-pyridinyl)ethyl]amino}ethyl)-2-(1H-pyrrol-2-yl)acetamide hydrochloride], the figures for the IC50 (in assay [1]; against factor Xa) were less than 0.09 µM and 7.7 µM, respectively.
In the same order, the values of `COc1ccc(CNC(=O)CNC(=O)CNc2cccc(C(=N)N)c2)cc1OC` [Example 16, 2-({3-[amino (imino)methyl]phenyl}amino)-N-[2-({[3,4-bis(methyloxy)phenyl]methyl]amino}-2-oxoethyl)acetamide hydrochloride] are less than 0.09 µM and 9.2 µM.
In the same order, the values of `N=C(N)c1cccc(NCC(=O)NCC(=O)NCc2ccccc2)c1` [Example 14, 2-({3-[amino (imino)methyl]phenyl}amino)-N-{2-oxo-2-[(phenylmethyl)amino]ethyl}acetamide hydrochloride] are less than 0.09 µM and 7.15 µM.
With `CC(C)C(NC(=O)C(CO)Nc1cccc(C(=N)N)c1)C(=O)NCc1ccc2c(c1)OCO2` (stereo not drawn) [Example 18, 2-{[2-({3-[amino(imino)methyl]phenyl}amino)-3-hydroxypropanoyl]amino}-N-(1,3-benzodioxol-5-ylmethyl)-3-methylbutanamide hydrochloride], the IC50 was less than 0.09 µM in assay [1] and 8.6 µM at factor Xa.
For `N=C(N)c1cccc(NCC(=O)NCC(=O)NCCc2ccc(O)cc2)c1` [Example 9, 2-({3-[amino(imino)methyl]phenyl}amino)-N-(2-{[2-(4-hydroxyphenyl)ethyl]amino}-2-oxoethyl)acetamide hydrochloride], the IC50 in assay [1] is less than 0.09 µM; at factor Xa it was 2.4 µM.
For `N=C(N)c1ccc(CNC(C(=O)NCC(=O)NCc2cccnc2)c2ccc[nH]2)cc1` (stereo not drawn) [Example 22, 2-[({4-[amino(imino)methyl]phenyl}methyl)amino]-N-{2-oxo-2-[(3-pyridinylmethyl)amino]ethyl)-2-(1H-pyrrol-2-yl)acetamide hydrochloride], the IC50 was less than 0.09 µM in assay [1] and 15 µM against factor Xa.
On the same counts, the results for `CC(C)C(NC(=O)CNc1cccc(C(=N)N)c1)C(=O)NCCc1c[nH]c2ccccc12` (stereo not drawn) [Example 12, 2-{[({3-[amino(imino)methyl]phenyl}amino)acetyl]amino}-N-[2-(1H-indol-3-yl)ethyl]-3-methylbutanamide hydrochloride] are less than 0.09 µM and 14.5 µM.
In the same order, the values of `CC(C)C(NC(=O)C(CO)Nc1cccc(C(=N)N)c1)C(=O)NCc1ccccc1` (stereo not drawn) [Example 17, 2-{[2-({3-[amino(imino)methyl]phenyl}amino)-3-hydroxypropanoyl]amino}-3-methyl-N-(phenylmethyl)butanamide hydrochloride] are less than 0.09 µM and 7.6 µM.
For the compound `CC(C)C(Nc1cccc(C(=N)N)c1)C(=O)NCC(=O)NCCc1c[nH]c2ccccc12` (stereo not drawn) [Example 10, 2-({3-[amino(imino)methyl]phenyl}amino)-N-(2-{[2-(1H-indol-3-yl)ethyl]amino}-2-oxoethyl)-3-methylbutanamide hydrochloride], the IC50 was less than 0.09 µM in assay [1] and 55 µM against factor Xa.
On to `CC(NC(=O)CNc1cccc(C(=N)N)c1)C(=O)NC1CCCCC1` (stereo not drawn) [Example 11, 2-{[({3-[amino(imino)methyl]phenyl}amino)acetyl]amino}-N-cyclohexylpropanamide hydrochloride], for which the IC50 in assay [1] was less than 0.09 µM; against factor Xa, 4.45 µM.
In the same order, the values of `CC(Nc1cccc(C(=N)N)c1)C(=O)NCC(=O)NCCc1c[nH]c2ccccc12` (stereo not drawn) [Example 3, 2-({3-[amino(imino)methyl]phenyl}amino)-N-(2-{[2-(1H-indol-3-yl)ethyl]amino}-2-oxoethyl)propanamide hydrochloride] are less than 0.09 µM and 21.9 µM.
For `COC(=O)c1ccc(C(NCc2ccc(C(=N)N)cc2)C(=O)NC(C(=O)NCCc2c[nH]c3ccccc23)C(C)C)cc1` (stereo not drawn) [Example 7, methyl 4-(1-[({4-[amino(imino)methyl]phenyl}methyl)amino]-2-{[1-({[2-(1H-indol-3-yl)ethyl]amino}carbonyl)-2-methylpropyl]amino}-2-oxoethyl)benzoate hydrochloride], the IC50 in assay [1] is less than 0.09 µM; on factor Xa it was greater than 110 µM.
In the same order, the values of `CCOC(=O)C(Nc1cccc(C(=N)N)c1)C(=O)NC(C(=O)NCCc1c[nH]c2ccccc12)C(C)C` (stereo not drawn) [Example 5, ethyl 2-({3-[amino(imino)methyl]phenyl}amino)-3-{[1-({[2-(1H-indol-3-yl)ethyl]amino}carbonyl)-2-methylpropyl]amino}-3-oxopropanoate hydrochloride] are less than 0.09 µM and 5.7 µM.
As to `COc1ccc(CNC(=O)C(C)NC(=O)CNCc2ccc(C(=N)N)cc2)cc1OC` (stereo not drawn) [Example 6, 2-({[({4-[amino(imino)methyl]phenyl}methyl)amino]acetyl}amino)-N-{[3,4-bis(methyloxy)phenyl]methyl}propanamide hydrochloride], the values for the IC50 (in assay [1]; at factor Xa) were less than 0.09 µM and greater than 110 µM, respectively.
On the same counts, the results for `CC(C)C(NC(=O)C(CO)Nc1cccc(C(=N)N)c1)C(=O)NCCC(c1ccccc1)c1ccccc1` (stereo not drawn) [Example 19, 2-{[2-({3-[amino(imino)methyl]phenyl}amino)-3-hydroxypropanoyl]amino}-N-(3,3-diphenylpropyl)-3-methylbutanamide hydrochloride] are less than 0.09 µM and 8.6 µM.
On the same counts, the results for `CC(NCc1ccc(C(=N)N)cc1)C(=O)NCC(=O)NCCc1ccccn1` (stereo not drawn) [Example 13, 2-[({4-[amino (imino)methyl]phenyl}methyl)amino]-N-(2-oxo-2-{[2-(2-pyridinyl)ethyl]amino}ethyl)propanamide hydrochloride] are less than 0.09 µM and greater than 110 µM.
Consider `N=C(N)c1cccc(NC(C(=O)NCC(=O)NCCc2c[nH]c3ccccc23)c2cc[nH]n2)c1` (stereo not drawn) [Example 4, 2-({3-[amino(imino)methyl]phenyl}amino)-N-(2-{[2-(1H-indol-3-yl)ethyl]amino}-2-oxoethyl)-2-(1H-pyrazol-3-yl)acetamide hydrochloride], for which the figures for the IC50 (in assay [1]; against factor Xa) were less than 0.09 µM and 26.4 µM, respectively.
As to `N=C(N)c1ccc(CNC(CO)C(=O)NCC(=O)NCCc2ccccn2)cc1` (stereo not drawn) [Example 20, 2-[({4-[amino(imino)methyl]phenyl}methyl)amino]-3-hydroxy-N-(2-oxo-2-{[2-(2-pyridinyl)ethyl]amino}ethyl)propanamide hydrochloride], the IC50 in assay [1] was less than 0.09 µM; at factor Xa, greater than 110 µM.
